In patent publication US12673945B2, “3-((8-((1H-pyrazol-4-yl)amino)imidazo[1,2-a]pyridin-3-yl)ethinyl)-n-phenylbenzamide derivative, method for preparing same, and pharmaceutical composition containing same as active ingredient for prevention or treatment of cancer” (DAEGU-GYEONGBUK MEDICAL INNOVATION FOUNDATION, priority 2020, dated 2026) one finds GI50 data, which are given here for 6 molecules.

Holding throughout (assay type): cell-based
One assay has as its system T315I-KOPM28 cells. Briefly: human CML cell proliferation inhibition. The note with it: 72 hours, Cell Counting Kit-8. In outline: (§1)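 TCCS and KOPM28 (Bcr-Abl) and their T315I-mutant counterparts, 1×10^4 cells/well, exposed 72 h at 37 °C to 9 fivefold dilutions of compound, final up to 10 μM. Viability by CCK-8 absorbance at 450 nm after 2 h; GI50 from percentage of vehicle.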

The subject of a further assay is T315I-TCCS cells. Briefly: human CML cell proliferation inhibition. The settings on record: 72 hours, Cell Counting Kit-8. In outline:
as §1
Background: Tetrazolium assays rely on reduction of a dye to a coloured formazan, in cell work by metabolically active cells.

The next assay deals with KOPM28 cells. In words: human CML cell proliferation inhibition. The note with it: 72 hours, Cell Counting Kit-8. In outline:
as §1

The test system of a further assay is TCCS cells. Briefly: human CML cell proliferation inhibition. The note with it: 72 hours, Cell Counting Kit-8. In outline: as §1
A further assay deals with Parental (Ba/F3). Briefly: Ba/F3 cell proliferation inhibition. The note with it: BaF3; 72 hours, Cell Counting Kit-8. The gist of the method: (§2)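 GI50 derived from CCK-8 absorbance at 450 nm (2 h development), expressed relative to DMSO vehicle. Cells (parental or T315I-Bcr-Abl Ba/F3, 1×10^4/well) received nine threefold-diluted concentrations, final 0 to 10 μM, for 72 h at 37 °C.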

The test system of a further assay is T315I-Bcr-Abl (Ba/F3). In words: Ba/F3 cell proliferation inhibition. The note with it: BaF3; 72 hours, Cell Counting Kit-8. The gist of the method: as §2

As a reminder, the GI50 is the concentration that inhibits growth by half.

Take `Cc1cc(F)c(C(=O)Nc2cc(N3CCN(C)CC3)cc(C(F)(F)F)c2)cc1C#Cc1cnc2c(Nc3cn[nH]c3)cccn12` [Example 99, 5-((8-((1H-pyrazol-4-yl)amino)imidazo[1,2-a]pyridin-3-yl)ethynyl)-2-fluoro-4-methyl-N-(3-(4-methylpiperazin-1-yl)-5-(trifluoromethyl)phenyl)benzamide]: the GI50 was greater than 100 nM in the assay with T315I-KOPM28 cells; 100 nM in the assay on T315I-TCCS cells; less than 10 nM in the assay with KOPM28 cells; less than 10 nM in the assay on TCCS cells; 500 to 5000 nM with Parental (Ba/F3); 50 to 500 nM with T315I-Bcr-Abl (Ba/F3).

With `Cc1cc(F)c(C(=O)Nc2ccc(CN3CC(OC(C)C)C3)c(C(F)(F)F)c2)cc1C#Cc1cnc2c(Nc3cnn(C)c3)cccn12` [Example 62, 2-fluoro-N-(4-((3-isopropoxyazetidin-1-yl)methyl)-3-(trifluoromethyl)phenyl)-4-methyl-5-((8-((1-methyl-1H-pyrazol-4-yl)amino)imidazo[1,2-a]pyridin-3-yl)ethynyl)benzamide], the GI50 with T315I-KOPM28 cells was greater than 100 nM; in the assay with T315I-TCCS cells it was greater than 100 nM; in the assay on KOPM28 cells, less than 10 nM; with TCCS cells, less than 10 nM; in the assay with Parental (Ba/F3), greater than 5000 nM; in the assay on T315I-Bcr-Abl (Ba/F3) it was 500 to 5000 nM.

With `Cc1cc(F)c(C(=O)Nc2ccc(Oc3ccncc3)c(C(F)(F)F)c2)cc1C#Cc1cnc2c(Nc3cnn(C)c3)cccn12` [Example 65, 2-fluoro-4-methyl-5-((8-((1-methyl-1H-pyrazol-4-yl)amino)imidazo[1,2-a]pyridin-3-yl)ethynyl)-N-(4-(pyridin-4-yloxy)-3-(trifluoromethyl)phenyl)benzamide], the GI50 in the assay on T315I-KOPM28 cells is 100 nM; in the assay with T315I-TCCS cells, 100 nM; with KOPM28 cells it was less than 10 nM; with TCCS cells, less than 10 nM; in the assay on Parental (Ba/F3) it was greater than 5000 nM; in the assay with T315I-Bcr-Abl (Ba/F3), 50 to 500 nM.

`Cc1cc(F)c(C(=O)Nc2ccc(CN3CCC(N(C)C)C3)c(C(C)(C)C#N)c2)cc1C#Cc1cnc2c(Nc3cn[nH]c3)cccn12` (stereo not drawn) [Example 91, 5-((8-((1H-pyrazol-4-yl)amino)imidazo[1,2-a]pyridin-3-yl)ethynyl)-N-(3-(2-cyanopropan-2-yl)-4-((3-(dimethylamino)pyrrolidin-1-yl)methyl)phenyl)-2-fluoro-4-methylbenzamide]: the GI50 with T315I-KOPM28 cells is greater than 100 nM; in the assay on T315I-TCCS cells it was greater than 100 nM; with KOPM28 cells, less than 10 nM; with TCCS cells it was less than 10 nM; in the assay with Parental (Ba/F3) it was 500 to 5000 nM; in the assay with T315I-Bcr-Abl (Ba/F3) it was 50 to 500 nM.

As to `Cc1cc(F)c(C(=O)Nc2cc(CN3CCN(S(C)(=O)=O)CC3)cc(C(C)(C)C#N)c2)cc1C#Cc1cnc2c(Nc3cnn(C)c3)cccn12` [Example 34, N-(3-(2-cyanopropan-2-yl)-5-((4-(methylsulfonyl)piperazin-1-yl)methyl)phenyl)-2-fluoro-4-methyl-5-((8-((1-methyl-1H-pyrazol-4-yl)amino)imidazo[1,2-a]pyridin-3-yl)ethynyl)benzamide], the GI50 is greater than 100 nM with T315I-KOPM28 cells; 100 nM in the assay on T315I-TCCS cells; less than 10 nM in the assay with KOPM28 cells; less than 10 nM in the assay with TCCS cells; greater than 5000 nM in the assay with Parental (Ba/F3); 50 to 500 nM in the assay with T315I-Bcr-Abl (Ba/F3).

Regarding `Cc1cc(F)c(C(=O)Nc2cc(OCCCN(C)C)cc(C(F)(F)F)c2)cc1C#Cc1cnc2c(Nc3cn[nH]c3)cccn12` [Example 103, 5-((8-((1H-pyrazol-4-yl)amino)imidazo[1,2-a]pyridin-3-yl)ethynyl)-N-(3-(3-(dimethylamino)propoxy)-5-(trifluoromethyl)phenyl)-2-fluoro-4-methylbenzamide], the GI50 was greater than 100 nM in the assay with T315I-KOPM28 cells; 100 nM in the assay with T315I-TCCS cells; less than 10 nM with KOPM28 cells; less than 10 nM with TCCS cells; greater than 5000 nM in the assay on Parental (Ba/F3); 50 to 500 nM in the assay with T315I-Bcr-Abl (Ba/F3).
